Reference: PubChem BioAssay AID602464 (Sanford-Burnham Center for Chemical Genomics, 2012)
The source made the active and inactive calls. Rule as the data show it: active = IC50 below about 20 µM; inactive = the rest.

What follows are compounds tested on Gli-responsive luciferase reporter cells, SUFU pathway antagonism (assay: blockers of Gli reporter signaling – cell-based, luciferase luminescence, uHTS hits, dose response (AID 602464)).

Row | SMILES | IC50
1 | CN1/C(=C\C(=O)COC(=O)CNC(=O)c2ccc3ccccc3c2)C(C)(C)c2ccccc21 | 9.73 µM
2 | CC(=O)c1ccc(-n2cc(-c3ccc(C(C)(C)C)cc3)[n+]3c2SCCC3)cc1 | 9.87 µM
3 | Cc1sc2ncnc(NCC3COc4ccccc4O3)c2c1C (stereo not drawn) | 5.17 µM
4 | Cc1cc(N/N=C/c2ccc(O)cc2O)nc(-n2nc(C)cc2C)n1 | 7.17 µM
5 | O=C(C[C@@H]1C/C=C\C[C@H](NC(=O)OCC2c3ccccc3-c3ccccc32)C(=O)OC[C@H]2CCCN2C1=O)N[C@H](CO)Cc1ccccc1 | 6.71 µM
6 | CNS(=O)(=O)c1cccc(C(=O)OCC(=O)c2cc(C)n(CC3CCCO3)c2C)c1 (stereo not drawn) | 0.735 µM
7 | CCCCn1c(SCc2c(C)noc2C)nc2cc(S(N)(=O)=O)ccc21 | 4.21 µM
8 | C=CCOC(=O)c1[nH]c2c(c1C)C(=O)CC(c1cc(OC)c(OC)c(OC)c1)C2 (stereo not drawn) | 1.98 µM
9 | COC(=O)c1cc(S(=O)(=O)N2CCC(c3cc(OC)ccc3OC)C2)c[nH]1 (stereo not drawn) | 9.96 µM
10 | Clc1ccc(-c2c[n+](Cc3ccc(Cl)cc3Cl)c3n2CCCCC3)cc1 | 5.31 µM
11 | CCCOc1ccccc1N/C(=N/c1nc(C)cc(C)n1)NC(=O)COc1ccc(OC)cc1 | 7.7 µM
12 | CC(Sc1nc2ccccc2c(=O)n1C)C(=O)N(C)C1CCCCC1 (stereo not drawn) | 3.99 µM
13 | Cc1ccc(C2=C(CC(=O)O)C(=O)CC2)cc1 | > 20 µM (inactive)
14 | CC(=O)c1cn(Cc2ccccc2F)c2ccccc12 | 8.82 µM
15 | N=c1c2c(n(Cc3ccc(F)cc3)c3c1CCC3)CCCC2 | 3.82 µM
16 | COCCNC(=O)CSCc1nc(-c2ccc(SC)cc2)oc1C | 8.46 µM
17 | CCOC(=O)c1c(NC(=O)COc2ncnc3ccccc23)sc(C(C)=O)c1C | 10.1 µM
18 | Clc1ccc(-n2cc(-c3ccc(Br)cc3)[n+]3c2CCCCC3)cc1 | 7.04 µM
19 | O=C(c1cnc(N2CCN(c3ccccn3)CC2)c2ccccc12)N1CCN(c2cccc(Cl)c2)CC1 | 11.4 µM
20 | O=C(C1CCCCC1)N1CCN(c2ccnc3cc(Cl)ccc23)CC1 | 4.29 µM
21 | Cc1ccc(OCCOC(=O)c2cc(S(=O)(=O)N3CCCCC3)ccc2N2CCOCC2)cc1 | > 20 µM (inactive)
22 | CCn1c(/C=C/Nc2ccccc2)[n+](CC)c2cc(Cl)c(Cl)cc21 | 7.87 µM
23 | O=C(Nc1cccc(C(F)(F)F)c1)C1CCN(S(=O)(=O)c2ccc(N3CCCC3=O)cc2)CC1 | 5.45 µM
